In experiment [1] the test system is Staphylococcus aureus RN4220. Briefly: Minimum bactericidal concentration. The class given is cell-based. Conditions: S. aureus RN4220; MHB; median; 3-log reduction of viable bacteria. The protocol: (§1) Minimum inhibitory concentration (MIC) values were determined for those compounds showing the most antibacterial activity in the bacterial viability assays (see Supplemental Materials) against each of the strains of bacteria using a microdilution method in 96 well plates with LB media according to guidelines published by the British Society for Antimicrobial Chemotherapy. Minimum bactericidal concentrations (MBC) were determined by plating 10 µL and 100 µL from each well showing no signs of growth after overnight incubation of the MIC plates and determining the minimum concentration showing a 3-log reduction of viable bacteria. MIC and MBC were also determined in cation-adjusted Mueller-Hinton broth (Hardy Diagnostics, Santa Maria, CA) for some compounds and strains.

The subject of experiment [2] is Escherichia coli (strain K91). Briefly: Minimum bactericidal concentration. To be noted: E. coli K91; MHB; median; 3-log reduction of viable bacteria. The class given is cell-based. The protocol:
as §1

In experiment [3] the test system is MRSA strain LAC, USA300. Briefly: Minimum inhibitory concentration (microdilution). The class given is cell-based, Staphylococcus aureus. The procedure: as §1
For orientation: Broth dilution looks for growth in wells or tubes with falling amounts of substance.

Experiment [4] deals with MRSA. Description: Cytoplasmic leakage & bacteriolysis assay. The class given is cell-based, Staphylococcus aureus. To be noted: for change in A260 of culture supernatant (cytoplasmic leakage): 4×MIC (8 mg/L), within the first 30 minutes, versus untreated controls; for number of viable cells (CFUs) during the leakage assay: over the 3 hour period. The protocol: Bacteria were cultured to mid-log phase (OD600 ∼0.4) in LB media with shaking. Bacteria were then harvested and resuspended in PBS to a concentration of ∼10^8 CFU/mL. […] Bacteria were monitored over time for cytoplasmic leakage via A260 measurements and for cell viability. For A260 readings, sample aliquots were centrifuged for 5 min at 10,000×g at room temperature to remove cellular debris. Viability was monitored by determining the CFU/mL during the first 3 hours post treatment as described above for the kill curve assays.

Experiment [5] concerns MRSA. Briefly: Time-to-kill (kill curve) assay. Type of experiment: cell-based, Staphylococcus aureus. The protocol:
(§2) Bacteria were cultured to mid-log phase (OD600 ∼0.4) in LB media with shaking and then diluted to approximately 10^4 to 10^5 CFU/mL. Bacteria were then treated with compound at the MIC, 2×MIC, and 4×MIC (as determined by the MIC assays). Over the course of 24 hours, bacteria were incubated at 37°C and aliquots removed at various time intervals, diluted, and plated on LB agar. Plated bacteria were incubated overnight at 37°C and CFU/mL were calculated for each time interval.

The subject of experiment [6] is Enterococcus faecalis ATCC V583. Briefly: Minimum inhibitory concentration (microdilution). Conditions: Enterococcus faecalis, ATCCV583; E. faecalis V583; LB media; median of at least 3 determinations; read-out: MIC. The class given is cell-based. The procedure:
as §1

For experiment [7], the system named is Staphylococcus aureus RN4220. Description: Minimum inhibitory concentration (microdilution). The class given is cell-based. To be noted: S. aureus RN4220. The procedure: as §1
Experiment [8] relates to Acinetobacter baumannii ATCC 19606. Description: Minimum inhibitory concentration (microdilution). Conditions: Acinetobacter baumannii, ATCC19606; A. baumannii ATCC 19606; LB media; median of at least 3 determinations; read-out: MIC. The class given is cell-based. The procedure:
as §1

The test system of experiment [9] is Acinetobacter baumannii ATCC BAA1605. Description: Minimum inhibitory concentration (microdilution). The class given is cell-based. Conditions: ATCCBAA1605, A. baumannii ATCC BAA1605, LB media, median of at least 3 determinations. The protocol: as §1
Experiment [10] has as its system Pseudomonas aeruginosa (strain PA01). Description: Minimum inhibitory concentration (microdilution). The class given is cell-based. Conditions: Pseudomonas aeruginosa; P. aeruginosa PA01; LB media; median of at least 3 determinations; read-out: MIC. The procedure: as §1
For experiment [11], the system named is Escherichia coli (strain K91). Briefly: Minimum inhibitory concentration (microdilution). To be noted: E. coli K91. Type of experiment: cell-based. The procedure:
as §1

In experiment [12] the test system is Enterococcus faecalis MSU#10. Description: Minimum inhibitory concentration (microdilution). The class given is cell-based. Conditions: Enterococcus faecalis; E. faecalis MSU#10; LB media; median of at least 3 determinations; read-out: MIC. The procedure:
as §1

The subject of another experiment is E. coli. Briefly: Time-to-kill (kill curve) assay. The class given is cell-based, Escherichia coli. The procedure:
as §2

Experiment [13] has as its system MRSA strain LAC, USA300. Description: Minimum bactericidal concentration. The class given is cell-based, Staphylococcus aureus. To be noted: MHB, median, 3-log reduction of viable bacteria. The procedure:
as §1

For a further experiment, the system named is S. aureus RN4220. Briefly: Bacterial viability assay. The class given is cell-based, Staphylococcus aureus. Conditions: Staphylococcus aureus, 1 h, one hour in PBS, CFU, ± SEM. The procedure:
(§3) Supplementary file pone.0097742.s003.doc: Table S1 Bacterial viability assays. Bacteria were grown at 37°C to mid-log phase (OD600 ∼0.4). The bacteria were diluted to approximately 10^4 to 10^5 colony forming units (CFU) per milliliter and added to a solution of phosphate buffered saline (PBS, 16 mM phosphate, 0.14 M NaCl, pH 7.2) containing the compound at varied concentrations. Samples were incubated at 37°C for one hour and then plated on Luria Bertani (LB) agar at appropriate dilutions in PBS. The plates were incubated overnight at 37°C and colonies enumerated the following day. IC50s were calculated from graphs of CFU as a function of compound concentration. Chlorhexidine was used as a positive control. Included are those guanide (G), biguanide (BG), phenylguanide (ΦG) compounds that had some antibacterial activity in an initial screen at 30 and 100 µM, as well as their and parent amines. Compounds synthesized from 1,4-butanediamine, 1,6-hexanediamine, trisethylaminomelamine, trisbutylaminomelamine, and the dendrimer PAMAM (G0) were not active against E. coli, P aeruginosa, or S. aureus so they were not tested against the remaining bacteria (data not shown). (DOC) Click here for additional data file.
as §3, with “Bacterial” for “Supplementary file pone.0097742.s003.doc: Table S1 Bacterial”, “~0.4).” for “∼0.4).”, “μM,” for “µM,”, “shown).” for “shown). (DOC) Click here for additional data file.”

Where [14] appears, read: Staphylococcus aureus, MRSA USA300, LB media, median of at least 3 determinations, read-out: MIC.
[15] abbreviates: Staphylococcus aureus, LB media, median of at least 3 determinations, read-out: MIC.
Where [16] appears, read: Escherichia coli, LB media, median of at least 3 determinations, read-out: MIC.

Molecules are shown by their SMILES. In brackets after ≈: the same amount, converted by molar mass. Entries after “also recorded” stand apart in the source; their conditions may differ. Like-named read-outs stand apart in the source and are kept apart here. Some results are limits rather than exact numbers.

On to `[H]/N=C(\N/C(=N/[H])NCCCCCCNC(=N)NC(=N)Nc1ccc(Cl)cc1)Nc1ccc(Cl)cc1` [Chlorhexidine, chlorhexidine, reference compound], for which the MBC in experiment [1] was found to be 0.89 µg/mL (≈ 1.76 µM); in experiment [2], 0.44 µg/mL (≈ 0.87 µM); with MRSA strain LAC, USA300 [13], 0.89 µg/mL (≈ 1.76 µM). Further, the minimal inhibitory concentration (MIC) stood at 0.67 µg/mL (≈ 1.33 µM) in the experiment with MRSA strain LAC, USA300 [3] (MRSA USA300, MHB, median); 1 µg/mL (≈ 1.98 µM) in the experiment with MRSA strain LAC, USA300 [3] (setting [14]); 6 µg/mL (≈ 11.9 µM) in [6]; 0.89 µg/mL (≈ 1.76 µM) in experiment [7] (MHB, median); 1 µg/mL (≈ 1.98 µM) in experiment [7] (setting [15]); 16 µg/mL (≈ 31.7 µM) in experiment [8]. Also, the MIC came out at 16 µg/mL (≈ 31.7 µM) in experiment [9]; 8 µg/mL (≈ 15.8 µM) in experiment [10]; 0.44 µg/mL (≈ 0.87 µM) in experiment [11] (MHB, median); 1 µg/mL (≈ 1.98 µM) in experiment [11] (setting [16]); 4 µg/mL (≈ 7.91 µM) in experiment [12]. Also, the results for the “change in A260 of culture supernatant (cytoplasmic leakage)” value in the experiment on MRSA [4] and in the experiment on MRSA [4] (listed as chlorhexidine) were “immediate increase in A260” and “significant increase in A260”, respectively. Also, the “number of viable cells (CFUs) during the leakage assay” value with MRSA [4] is given as “no significant reductions in CFUs”; in the experiment with MRSA [4] (listed as chlorhexidine), “no significant reduction in CFUs”. In addition, the “time by which bactericidal activity was seen” value in the experiment on MRSA [5] (1× to 4×MIC) was at most 24 h. Moreover, the “time after which no viable cells remained” value with E. coli (2 mg/L) stood at 6 h. For the same compound, in the experiment on E. coli (2 mg/L, within 4 hours of treatment), the “reduction in CFU/mL” value is listed as over 3 log. The same compound returned a half-inhibitory concentration (IC50) in the experiment with S. aureus RN4220 of 860 ± 210 nM.
Turning to `N=C(NCCCCCCNc1nc(NCCCCCCNC(=N)Nc2ccccc2)nc(NCCCCCCNC(=N)Nc2ccccc2)n1)Nc1ccccc1` [THAM-3ΦG, Trishexylaminomelamine trisphenylguanide], the MBC came to 2 µg/mL (≈ 2.57 µM) in experiment [1]; 16 µg/mL (≈ 20.6 µM) in experiment [2]; 1 µg/mL (≈ 1.29 µM) in the experiment on MRSA strain LAC, USA300 [13]. Also, the minimum inhibitory concentration (MIC) against MRSA strain LAC, USA300 [3] (MRSA USA300, MHB, median) was 1 µg/mL (≈ 1.29 µM); in the experiment with MRSA strain LAC, USA300 [3] (setting [14]), 2 µg/mL (≈ 2.57 µM); in the experiment with MRSA strain LAC, USA300 [3] (Staphylococcus aureus, against MRSA, as stated in the abstract, read-out: MIC), about 1 µg/mL (≈ 1.29 µM); in [6], 256 µg/mL (≈ 329 µM); in experiment [7] (MHB, median), 1 µg/mL (≈ 1.29 µM); in experiment [7] (setting [15]) it was 2 µg/mL (≈ 2.57 µM). Also, the MIC in experiment [8] is over 256 µg/mL; in experiment [9], over 256 µg/mL; in experiment [10] it was 48 µg/mL (≈ 61.7 µM); in experiment [11] (MHB, median), 8 µg/mL (≈ 10.3 µM); in [11] (setting [16]) it was 8 µg/mL (≈ 10.3 µM); in experiment [12] it was 32 µg/mL (≈ 41.1 µM). Further, the “change in A260 of culture supernatant (cytoplasmic leakage)” value in the experiment on MRSA [4] (listed as THAM-3ФG) was “significant increase in A260; also recorded: immediate increase in A260”. The “number of viable cells (CFUs) during the leakage assay” value in the experiment on MRSA [4] (listed as THAM-3ФG) is “no significant reductions in CFUs”. Moreover, the “reduction in CFU/mL” value in the experiment with MRSA [5] (4×MIC, within 4 hours post treatment) is recorded as 3 log; in the experiment with E. coli (4×MIC (32 mg/L), only after 4 hours of treatment) it was over 3 log. Moreover, the “time after which no viable cells remained” value with MRSA [5] (at the MIC) amounted to 24 h. The “time to kill all the cells” value in the experiment on E. coli (4×MIC (32 mg/L)) amounted to 24 h. Further, the IC50 with S. aureus RN4220 worked out at 1700 ± 900 nM.

The MBC is the lowest tested concentration that kills the bacteria rather than only halting them. Read a low MBC as greater bactericidal potency. In general, MIC refers to the lowest concentration that inhibits growth of the organism. Usually IC50 stands for the concentration that inhibits the measured activity by half. The low end stands for greater potency, the high end for weaker potency.
